Structures are written as SMILES. “And” between values parts separate entries of the source, which are not always exact repeats. Identical values can stand only once. Like-named read-outs stand apart in the source and are kept apart here.

Data on 18 compounds can be found in publication PMC10755004, “Pyrimidine salvage in Toxoplasma gondii as a target for new treatment” (Frontiers in Cellular and Infection Microbiology, 2023).

The test system of assay [1] is T. gondii intracellular tachyzoites. The assay can be described thus: Drug sensitivity assay for T. gondii tachyzoites in HFF cells (RFP fluorescence, 6 days). Type of assay: cell-based, Toxoplasma gondii. Particulars: for effect on intracellular tachyzoites: concentrations up to 25 µM; for in vitro activity compared with sulfadiazine (in words): EC50 against T. gondii vs sulfadiazine; for EC50: intracellular tachyzoites in HFF, 6 days. As for the experimental part:
The in vitro inhibitory effects of antimicrobial nucleoside agents on T. gondii growth were determined in HFF cell cultures using 96-well black plates (Optical-Bottom Plates with Polymer Base, Thermo Fisher Scientific). 150 – 200 µL of HFF cells were seeded into 96-well black plates and incubated for 3-5 days at 37°C under 5% CO2 in a humidified incubator. Once the HFF cells became confluent the supernatant was discarded and replaced with 100 µL fresh DMEMc media. Sulfadiazine (positive control) and the nucleoside compounds were already dissolved in DMSO at known concentrations, usually prepared as 10 mM. After that, every compound was diluted in DMEMc at 4x final concentration. The assays were performed in duplicate or triplicate throughout. 100 µL of 4x compounds were transferred to the wells of the first column of a 96-well black plate of which each well contained HFF cells in 100 µL DMEMc. The compounds were mixed, and 100 µL was transferred using the multichannel pipette to the next column before being transferred to each column through the entire plate over one row, leaving the last column as a negative control without drug. After that, naturally, freshly egressed parasites were collected and filtered through a 3-µm filter (Sigma-Aldrich). ~1000 parasites/well were added in 100 µL DMEMc (giving a total volume of 200 µL/well) and incubated for 6 days at a 37°C/5% CO2 in a humidified incubator. On day 6, a PHERAstar plate reader (BMG Labtech, Germany) was used to read the fluorescence intensity at 540 nm for excitation and 590 nm for emission. The EC50 values and fluorescence data were determined and plotted by using Prism 8.0 (GraphPad). Each experiment was independently performed 3-5 times.
Most published protocols for in vitro drug screening against T. gondii use the MTT assay, which is a colorimetric assay that relies on tetrazolium salt and is used for accessing cell viability, cell proliferation and cytotoxicity for the host cells ([Jin et al., 2012]). Our protocol is an adaptation from a method that was used to evaluate antiretroviral compounds against T. gondii tachyzoites ([Wang et al., 2019]). These authors added 5×10^4 cells/mL freshly egressed tachyzoites to each well of a 96-well plate with an HFF cell monolayer, followed by incubation for 4 h to allow the cells to invade the host cells; the medium containing extracellular tachyzoites was then removed and fresh medium containing the desired concentration of the antiretroviral drugs was added to the wells and incubated for 5 days at 37°C and 5% CO2 in a humidified incubator ([Wang et al., 2019]). In our adaptation of this protocol, we aimed to eliminate the step of wash/removal of tachyzoites, in order to increase reproducibility. We thus prepared the serial dilutions of compounds in the 96-well plates containing the HFF monolayer cells and then added the lower number of 1×10^4 cells/mL freshly lysed tachyzoites to the 96-well plates, already containing both the HFF monolayer cells and tested compounds. The plates were then incubated for 6 days at 37°C and 5% CO2 in a humidified incubator. A major advantage that was introduced was detection of T. gondii in the wells, which was achieved by measuring fluorescence of the RFP-expressing parasites.

The target in assay [2] is uridine/uracil transporter 1 (TgUUT1). The assay can be described thus: Transport of 0.1 µM [3H]-uridine into extracellular T. gondii tachyzoites (oil-stop technique). The assay is classed as cell-based, Toxoplasma gondii. Particulars: for Ki: inhibition of 0.1 µM [3H]-uridine transport; for δ(ΔG^0): loss of binding energy compared with uridine; for inhibition of [3H]-uridine uptake: 0.1 µM [3H]-uridine, 5 min; for Gibbs free energy of binding: from Km/Ki on [3H]-uridine transport; for Km: 0.1 µM label, tachyzoites, n=3.

The test system of assay [3] is HFF cells. Put plainly: cells. The following applies: Homo sapiens, 144 h.
The subject of assay [4] is T. gondii. The assay can be described thus: Mouse model of acute toxoplasmosis, parasite burden in lung by qPCR. Type of assay: in vivo, C57BL/6J mice. Particulars: pyrimidines 25 mg/kg i.p., sulfadiazine oral in water, lung parasite burden day 10.
Assay [5] concerns HFF cells. Particulars: for S.I.: selectivity index, HFF cytocidal EC50/tachyzoite EC50; for EC50: read-out: HFF ctotoxicity EC50 Cytostatic, uninfected HFF, 6 days.
For assay [6], the system named is uridine/uracil transporter 1 (TgUUT1). Put plainly: Transport of 0.1 µM [3H]-uracil into extracellular T. gondii tachyzoites (oil-stop technique). The assay is classed as cell-based, Toxoplasma gondii. Particulars: for Ki: inhibition of 0.1 µM [3H]-uracil transport.
Assay [7] deals with TgAT1. The arrangement: method as in Chiang et al., 1999. The following applies: TgAT1 expressed in X. laevis oocytes; ref Chiang et al., 1999; cited from earlier work.
In assay [8] the test system is T. gondii tachyzoites. Put plainly: Uptake of tritiated pyrimidines by T. gondii tachyzoites over time. The assay is classed as cell-based, Toxoplasma gondii.
The test system of assay [9] is T. gondii. The arrangement: method as in el Kouni et al., 1999. The following applies: ref el Kouni et al., 1999; read-out: EC50 against T. gondii; cited from earlier work.
[10] abbreviates: read-out: HFF ctotoxicity EC50 Cytostatic.
Setting [11] is: read-out: HFF ctotoxicity EC50 Cytostatic (second column).

Consider `O=c1ccn([C@H]2CC[C@@H](CO)O2)c(=O)[nH]1` [2’,3’-dideoxyuridine], for which, in assay [1], the “effect on intracellular tachyzoites” value is “no effect”.

One may read the Ki as a dissociation constant, usually derived from enzyme kinetics or from competition with a known ligand. Take `O=c1ccn([C@H]2C[C@H](O)[C@@H](CO)O2)c(=O)[nH]1` [2’-Deoxyuridine]: in assay [2], the affinity, expressed as Ki, was 134 ± 31 µM; the “δ(ΔG^0)” value is 9.0 kJ/mol and 9.1 kJ/mol. The “effect on intracellular tachyzoites” value in [1] was “no effect”.

With `Cc1cn([C@H]2CC[C@@H](CO)O2)c(=O)[nH]c1=O` [3’-deoxythymidine], the “effect on intracellular tachyzoites” value in [1] is recorded as “no effect”.

One may read the EC50 as the concentration giving half of the maximal effect. `O=c1[nH]c(=O)n([C@H]2C[C@H](O)[C@@H](CO)O2)cc1F` [5-F,2’dUrd, 5-fluoro-2’deoxyuridine]: the EC50 worked out at 0.19 ± 0.05 µM in [3] (setting [10]); 1480 ± 510 µM in assay [3] (setting [11]); 0.67 ± 0.07 µM in assay [1] (Toxoplasma gondii, 144 h). For the same compound, the entries for the “efficacy against acute toxoplasmosis, comparison between treatments” value in assay [4] and in assay [4] (listed as 5F,2’-deoxyuridine) were “significantly less effective” and “similarly effective as sulfadiazine”, respectively. Also, in [1], the “in vitro activity compared with sulfadiazine (in words)” value is given as “well below”. Also, in assay [5], the S.I. stood at 2205.

On to `O=c1[nH]cc(F)c(=O)[nH]1` [5-FU, 5-fluorouracil], for which the values for the Ki in assay [2] and in [6] were 5.24 ± 0.72 µM and 6.8 ± 2.12 µM, respectively. In addition, the “δ(ΔG^0)” value in assay [6] (5-FU Ki compared to uracil Km) is listed as 3.0 kJ/mol. Further, the EC50 worked out at 2.49 ± 0.43 µM in assay [3] (setting [10]); 3070 ± 340 µM in assay [3] (setting [11]); 1.13 ± 0.16 µM in assay [1] (Toxoplasma gondii, 144 h). The “efficacy against acute toxoplasmosis, comparison between treatments” value in [4] is listed as “not significantly different from sulfadiazine”; in assay [4] (listed as 5F-uracil), “similarly effective as sulfadiazine”. For the same compound, the “in vitro activity compared with sulfadiazine (in words)” value in assay [1] is reported as “well below”. The compound also had a S.I. in assay [5] of 2720.

Regarding `O=c1[nH]c(=O)n([C@@H]2O[C@H](CO)[C@@H](O)[C@H]2O)cc1F` [5-FUrd, 5-Flourouridine], the “in vitro activity compared with sulfadiazine (in words)” value in assay [1] is given as “well below”. The 50% effective concentration (EC50) in assay [1] came out at 0.45 ± 0.02 µM; in assay [5] (first (low concentration) phase, growth inhibition), 0.11 ± 0.1 µM; in assay [5] (second phase (cytocidal per footnote and text)) it was 20.4 ± 1 µM. This compound returned a S.I. in [5] of 45.

In [2], `Cc1cn([C@@H]2O[C@H](CO)[C@@H](O)[C@H]2O)c(=O)[nH]c1=O` [5-Methyluridine] came in with a Ki of 2380 ± 774 µM.

As to `C[C@H]1O[C@@H](n2ccc(=O)[nH]c2=O)[C@H](O)[C@@H]1O` [5’-deoxyuridine], in [1], the “effect on intracellular tachyzoites” value is reported as “no effect”.

One may read the Km as the concentration of substrate that gives half-maximal velocity. As for `Nc1ncnc2c1ncn2[C@@H]1O[C@H](CO)[C@@H](O)[C@H]1O` [Adenosine], in assay [2] (2500-fold excess of unlabeled inhibitor), the “inhibition of TgUUT1 uridine uptake” value is recorded as ~ 70%. Also, the affinity in [2], expressed as Ki, was 112 ± 6 µM. Also, in assay [7], the Km is 114 µM.

On to `Nc1ncnc2c1ncn2[C@@H]1O[C@H](CO)[C@@H](O)[C@@H]1O` [Ara-A, adenine arabinoside], for which a half-maximal effect in [1] (EC50) was put at 11.4 ± 1.8 µM.

As to `Nc1ccn([C@@H]2O[C@H](CO)[C@@H](O)[C@H]2O)c(=O)n1` [Cytidine], the Rate of uptake is listed as 0.0029 ± 0.0004 pmol(10^7 cells)^-1min^-1 in [8] (0.20 µM radiolabel) and 0.0029 pmol(10^7 cells)^-1min^-1 in assay [8] (0.20 µM radiolabel, listed as [^3H]-cytidine).

`O=c1[nH]cnc2c1ncn2[C@@H]1O[C@H](CO)[C@@H](O)[C@H]1O` [Inosine]: affinity in assay [2] was put at a Ki of 28.2 ± 4.1 µM.

Regarding `O=[N+]([O-])c1ccc(CSc2ncnc3c2ncn3[C@@H]2O[C@H](CO)[C@@H](O)[C@H]2O)cc1` [NBMPR], the EC50 in [1] was 3.19 ± 0.14 µM; in assay [9], 10.2 µM.

Consider `CCc1nc(N)nc(N)c1-c1ccc(Cl)cc1` [Pyrimethamine], for which, in assay [1] (Toxoplasma gondii, 144 h), the EC50 came to 16.2 µM.

The compound `Nc1ccc(S(=O)(=O)Nc2ncccn2)cc1` [Sulfadiazine] returned an EC50 in [1] (Toxoplasma gondii, 144 h) of 12.4 ± 1.08 µM.

As for `Cc1cn([C@H]2C[C@H](O)[C@@H](CO)O2)c(=O)[nH]c1=O` [Thymidine], the “inhibition of [3H]-uridine uptake” value in assay [2] (250 µM inhibitor) is “somewhat inhibited”. In assay [2], the “Gibbs free energy of binding” value is recorded as -17.1 kJ/mol; affinity was put at a Ki of 1010 ± 145 µM; the “δ(ΔG^0)” value was 14.1 kJ/mol and 14.2 kJ/mol. For the same compound, in assay [8] (0.25 µM [3H]-thymidine over 10 min, 1 mM unlabeled inhibitor), the “inhibition of [3H]-thymidine uptake” value was “did not significantly inhibit”. Further, the Rate of uptake in [8] (0.25 µM radiolabel, over 10 min) is reported as 0.00071 ± 0.00016 pmol(10^7 cells)^-1min^-1.

`O=c1cc[nH]c(=O)[nH]1` [Uracil]: in [2] (250 µM inhibitor), the “inhibition of [3H]-uridine uptake” value is 80%. For the same compound, the affinity in assay [2], expressed as Ki, was 1.15 ± 0.07 µM. Moreover, in [6] ([3H]-uracil as substrate), the Vmax is 0.166 pmol(10^7 cells)^-1 min^-1. The Km in [6] ([3H]-uracil as substrate, 0.1 µM label, tachyzoites, n=3) is 2050 ± 400 nM. Also, the Rate of uptake is given as 0.026 ± 0.0014 pmol(10^7 cells)^-1min^-1 in assay [8] (0.10 µM radiolabel) and 0.026 pmol(10^7 cells)^-1min^-1 in [8] (0.10 µM radiolabel, listed as [^3H]-uracil).

In general, inhibition refers to the drop in the measured response relative to a control, in per cent. The low end stands for a response near the control, the high end for a response far below the control. Turning to `O=c1ccn([C@@H]2O[C@H](CO)[C@@H](O)[C@H]2O)c(=O)[nH]1` [Uridine], the “inhibition of [3H]-uridine uptake” value in assay [2] (1 mM unlabeled inhibitor) turned out to be 90%. Besides, the Vmax in assay [2] ([3H]-uridine as substrate) is given as 1.21 ± 0.24 pmol(10^7 cells)^-1 min^-1. The Michaelis-Menten constant (Km) is 3.34 ± 0.82 µM in [2] ([3H]-uridine as substrate, listed as [^3H]-uridine) and 3.3 ± 0.8 µM in [2] ([3H]-uridine as substrate, listed as uridine). Moreover, the “Gibbs free energy of binding” value in assay [2] was -31.2 kJ/mol. The compound also returned an inhibition constant Ki in assay [6] of 2.44 ± 0.59 µM. Moreover, the Rate of uptake in assay [8] (0.10 µM radiolabel) is on record as 0.011 ± 0.0006 pmol(10^7 cells)^-1min^-1. Moreover, the “inhibition of [3H]-cytidine uptake” value in [8] (0.2 µM [3H]-cytidine, 1 mM unlabeled inhibitor) was “fully inhibited”. Besides, in [8] (0.25 µM [3H]-thymidine, 250 µM inhibitor), the “inhibition of [3H]-thymidine uptake” value is “did not inhibit”. For the same compound, the inhibition at 250 µM in assay [8] (Toxoplasma gondii, [3H]-cytidine, 250 µM inhibitor) was 100%.
